Assays:
3T3-L1 [1] = experiment: compound was evaluated for their acute effects in vitro by measuring 2-Deoxyglucose (2DG) uptake in vehicle treated 3T3-L1 adipocytes at 100 uM dose.; type: functional
Mus musculus [2] = experiment: compound was tested in vivo for hypoglycemic activity in 6-8 week old C57BL/6J ob/ob mouse at 10 mg/kg; type: functional
Mus musculus [3] = experiment: compound was tested in vivo for hypoglycemic activity in 6-8 week old C57BL/6J ob/ob mouse at 25 mg/kg; type: functional
Mus musculus [4] = experiment: compound was tested in vivo for hypoglycemic activity in 6-8 week old C57BL/6J ob/ob mouse at 50 mg/kg; type: functional
Rattus norvegicus [5] = organism: Rattus norvegicus; experiment: Compound was tested for inhibition of gluconeogenesis; type: functional; conditions: Rattus norvegicus; read-out: ED50
L6 [6] = experiment: compound was evaluated for their acute effects in vitro by measuring 2-Deoxyglucose (2DG) uptake in vehicle treated L6 […] at 60 uM dose.; type: functional
3T3-L1 [7] = experiment: compound was evaluated for their acute effects in vitro by measuring 2-Deoxyglucose (2DG) uptake in vehicle treated 3T3-L1 adipocytes at 10 uM dose.; type: functional
3T3-L1 [8] = experiment: compound was evaluated for their acute effects in vitro by measuring 2-Deoxyglucose (2DG) uptake in vehicle treated 3T3-L1 adipocytes at 30 uM dose.; type: functional
3T3-L1 [9] = experiment: compound was evaluated for their acute effects in vitro by measuring 2-Deoxyglucose (2DG) uptake in vehicle treated 3T3-L1 adipocytes at 60 uM dose.; type: functional
3T3-L1 [10] = experiment: Acute effects in vitro by measuring 2-deoxyglucose (2DG) uptake in vehicle treated 3T3-L1 adipocytes at 10 uM dose.; type: functional
3T3-L1 [11] = experiment: compound was evaluated for their acute effects in vitro by measuring 2-Deoxyglucose (2DG) uptake in vehicle treated 3T3-L1 adipocytes at 300 uM dose.; type: functional
3T3-L1 [12] = experiment: In vitro by measurements of 2-Deoxyglucose (2DG) uptake in vehicle treated 3T3-L1 adipocytes at 3 uM dose.; type: functional
3T3-L1 [13] = experiment: compound was evaluated for their acute effects in vitro by measuring 2-Deoxyglucose (2DG) uptake in vehicle treated 3T3-L1 adipocytes at concentration of 10 micro M; type: functional
3T3-L1 [14] = experiment: compound was evaluated for their acute effects in vitro by measuring 2-Deoxyglucose (2DG) uptake in vehicle treated 3T3-L1 adipocytes at concentration of 3 micro M; type: functional
3T3-L1 [15] = experiment: compound was evaluated for their acute effects in vitro by measuring 2-Deoxyglucose (2DG) uptake in vehicle treated 3T3-L1 adipocytes at concentration of 30 micro M; type: functional
Mus musculus [16] = experiment: In vivo hypoglycemic activity expressed as glucose lowering relative to positive control in 6-8 week old C57BL/6J ob/ob mouse at 10 mg/kg; type: functional
Mus musculus [17] = experiment: In vivo hypoglycemic activity expressed as glucose lowering relative to positive control in 6-8 week old C57BL/6J ob/ob mouse at 1 mg/kg.; type: functional
Mus musculus [18] = experiment: In vivo hypoglycemic activity expressed as glucose lowering relative to positive control in 6-8 week old C57BL/6J ob/ob mouse at 5 mg/kg.; type: functional
Mus musculus [19] = experiment: compound was tested in vivo for hypoglycemic activity in 6-8 week old C57BL/6J ob/ob mouse at 0.5 mg/kg; type: functional
Rattus norvegicus [20] = organism: Rattus norvegicus; experiment: Inhibition of gluconeogenesis in rat; type: functional
3T3-L1 [21] = experiment: Acute effects in vitro by measuring 2-deoxyglucose (2DG) uptake in vehicle treated 3T3-L1 adipocytes at 30 uM dose.; type: functional
3T3-L1 [22] = experiment: compound was evaluated for their acute effects in vitro by measuring 2-Deoxyglucose (2DG) uptake in vehicle treated 3T3-L1 adipocytes at 3 uM dose.; type: functional
L6 [23] = experiment: compound was evaluated for their acute effects in vitro by measuring 2-Deoxyglucose (2DG) uptake in vehicle treated L6 […] at 10 uM dose.; type: functional
L6 [24] = experiment: compound was evaluated for their acute effects in vitro by measuring 2-Deoxyglucose (2DG) uptake in vehicle treated L6 […] at 30 uM dose.; type: functional
L6 [25] = experiment: compound was evaluated for their acute effects in vitro by measuring 2-Deoxyglucose (2DG) uptake in vehicle treated L6 […] at 3 uM dose.; type: functional
3T3-L1 [26] = experiment: compound was evaluated for their acute effects in vitro by measuring 2-Deoxyglucose (2DG) uptake in vehicle treated 3T3-L1 adipocytes at 0.3 uM dose.; type: functional
3T3-L1 [27] = experiment: In vitro measurements 2-Deoxyglucose (2DG) uptake in vehicle treated 3T3-L1 adipocytes at 100 uM dose.; type: functional
3T3-L1 [28] = experiment: compound was evaluated for their acute effects in vitro by measuring 2-Deoxyglucose (2DG) uptake in vehicle treated 3T3-L1 adipocytes at 1 uM dose.; type: functional
3T3-L1 [29] = experiment: In vitro measurements of 2-Deoxyglucose (2DG) uptake in vehicle treated 3T3-L1 adipocytes at 60 uM dose.; type: functional
L6 [30] = experiment: Compound was evaluated for their acute effects in vitro by measuring 2-Deoxyglucose (2DG) uptake in vehicle treated L6 […] at 100 uM dose.; type: functional
L6 [31] = experiment: Compound was evaluated for their acute effects in vitro by measuring 2-Deoxyglucose (2DG) uptake in vehicle treated L6 […] at 10 uM dose.; type: functional
L6 [32] = experiment: Compound was evaluated for their acute effects in vitro by measuring 2-Deoxyglucose (2DG) uptake in vehicle treated L6 […] at 1 uM dose.; type: functional
L6 [33] = experiment: Compound was evaluated for their acute effects in vitro by measuring 2-Deoxyglucose (2DG) uptake in vehicle treated L6 […] at 3 uM dose.; type: functional
L6 [34] = experiment: Compound was evaluated for their acute effects in vitro by measuring 2-Deoxyglucose (2DG) uptake in vehicle treated L6 […] at 60 uM dose.; type: functional
Mus musculus [35] = experiment: Basal glucose(mg/dl) level when compound given at 5 mg/kg/day in pair feeding study with ob/ob mice; type: functional
Mus musculus [36] = experiment: Food intake (g/5 mice/ 5 days) when compound given at 5 mg/kg/day in pair feeding study with ob/ob mice; type: functional
Mus musculus [37] = experiment: Glucose(mg/dl) level, on day 5 when compound given at 5 mg/kg/day in pair feeding study with ob/ob mice; type: functional
Mus musculus [38] = experiment: Net body weight delta (g)when compound given at 5 mg/kg/day in pair feeding study with ob/ob mice; type: functional
Mus musculus [39] = experiment: compound was tested in vivo for hypoglycemic activity expressed as Glucose lowering relative to positive control in 6-8 week old C57BL/6J ob/ob mouse at 20 mg/kg; type: functional
Mus musculus [40] = experiment: compound was tested in vivo for hypoglycemic activity expressed as Glucose lowering relative to positive control in 6-8 week old C57BL/6J ob/ob mouse at 25 mg/kg; type: functional
Mus musculus [41] = experiment: compound was tested in vivo for hypoglycemic activity expressed as Glucose lowering relative to positive control in 6-8 week old C57BL/6J ob/ob mouse at 50 mg/kg; type: functional
Rattus norvegicus [42] = organism: Rattus norvegicus; experiment: Percentage inhibition of Glucagon stimulated Gluconeogenesis in Isolated Rat Hepatocytes in vitro; type: functional, Hepatocyte
Rattus norvegicus [43] = organism: Rattus norvegicus; experiment: Percentage inhibition of basal stimulated Gluconeogenesis in Isolated Rat Hepatocytes in vitro; type: functional, Hepatocyte
L6 [44] = experiment: Compound was evaluated for their acute effects in vitro by measuring 2-Deoxyglucose (2DG) uptake in vehicle treated L6 […] at 30 uM dose.; type: functional
Mus musculus [45] = experiment: compound was tested in vivo for hypoglycemic activity expressed as Glucose lowering relative to positive control in 6-8 week old C57BL/6J ob/ob mouse at 2.5 mg/kg; type: functional
[46] = Rattus norvegicus, read-out: ED50

## C1CCC(NC2CCCCC2)CC1.CC(C)c1ccc(OC(Cc2cccc(C(F)(F)F)c2)C(=O)O)cc1 (stereo unspecified)
3T3-L1 [1]
  Basal uptake: 284%
Mus musculus [2]
  Hypoglycemic activity: <0%
Mus musculus [3]
  Hypoglycemic activity: 64%
Mus musculus [4]
  Hypoglycemic activity: 76%
Rattus norvegicus [5]
  ED50: 25 mg/kg

## C1CCC(NC2CCCCC2)CC1.CC(C)c1ccc(OC(CCc2ccc(Cl)cc2)C(=O)O)cc1 (stereo unspecified)
3T3-L1 [1]
  Basal uptake: 89%
L6 [6]
  Basal uptake: 89%
Mus musculus [3]
  Hypoglycemic activity: 64%
Rattus norvegicus [5]
  ED50: < 25 mg/kg

## CC(C)c1ccc(SC(C)(Cc2ccc(Cl)cc2)C(=O)[O-])cc1.[Na+] (stereo unspecified)
3T3-L1 [7]
  Basal uptake: 83%
3T3-L1 [8]
  Basal uptake: 119%
3T3-L1 [9]
  Basal uptake: 187%
Mus musculus [2]
  Hypoglycemic activity: 31%
Rattus norvegicus [5]
  ED50: > 10 mg/kg

## CCc1cccc(CC(C)(Oc2ccc(C(C)C)cc2)C(=O)[O-])c1.[Na+] (stereo unspecified)
3T3-L1 [10]
  Basal uptake: 127%
3T3-L1 [11]
  Basal uptake: 117%
3T3-L1 [12]
  Basal uptake: 102%
3T3-L1 [13]
  Basal uptake: 194%
3T3-L1 [14]
  Basal uptake: 131%
3T3-L1 [15]
  Basal uptake: 246%
Mus musculus [16]
  Hypoglycemic activity: 147%
Mus musculus [17]
  Hypoglycemic activity: 76%
Mus musculus [18]
  Hypoglycemic activity: 101%
Mus musculus [19]
  Hypoglycemic: <0
Rattus norvegicus [20]; [46]
  ED50: 0.5 mg/kg

## CC(C)c1ccc(CC(C)(Oc2ccc(C(C)C)cc2)C(=O)[O-])cc1.[Na+] (stereo unspecified)
3T3-L1 [10]
  Basal uptake: 97%
3T3-L1 [21]
  Basal uptake: 93%
3T3-L1 [22]
  Basal uptake: 97%
Mus musculus [16]
  Hypoglycemic activity: 93%
Mus musculus [18]
  Hypoglycemic activity: <0%
Rattus norvegicus [20]; [46]
  ED50: 5 mg/kg

## CC(C)c1ccc(OC(C)(Cc2cccc(C(F)(F)F)c2)C(=O)[O-])cc1.[Na+] (stereo unspecified)
L6 [23]
  Basal uptake: 104%
L6 [24]
  Basal uptake: 121%
L6 [25]
  Basal uptake: 129%
Mus musculus [16]
  Hypoglycemic activity: 64%
Mus musculus [17]
  Hypoglycemic activity: 44%
Mus musculus [18]
  Hypoglycemic activity: 46%
Rattus norvegicus [20]; [46]
  ED50: 5 mg/kg

## CC(C)c1ccc(OC(C)(Cc2ccc(Cl)cc2)C(=O)O)cc1 (stereo in doubt; 26)
3T3-L1 [26]
  Basal uptake: 106%
3T3-L1 [27]
  Basal uptake: 220%
3T3-L1 [10]
  Basal uptake: 94%
3T3-L1 [28]
  Basal uptake: 86%
3T3-L1 [21]
  Basal uptake: 100%
3T3-L1 [12]
  Basal uptake: 98%
3T3-L1 [29]
  Basal uptake: 110%
3T3-L1 [13]
  Basal uptake: 200%
3T3-L1 [14]
  Basal uptake: 139%
3T3-L1 [15]
  Basal uptake: 291%
L6 [30]
  Basal uptake: 88%
L6 [31]
  Basal uptake: 96%
L6 [32]
  Basal uptake: 101%
L6 [33]
  Basal uptake: 97%
L6 [34]
  Basal uptake: 108%
Mus musculus [35]
  Basal glucose: 341 mg/dL
Mus musculus [36]
  Food intake: 132 g 5mice-1 5days-1
Mus musculus [37]
  Glucose: 223 mg/dL
Mus musculus [38]
  Net body weight delta: 0.4 g
Mus musculus [16]
  Hypoglycemic activity: 111%
Mus musculus [17]; 1 mg/kg
  Hypoglycemic activity: 50%
Mus musculus [39]
  Hypoglycemic activity: 104%
Mus musculus [40]
  Hypoglycemic activity: 90%
Mus musculus [41]
  Hypoglycemic activity: 83%
Mus musculus [18]; 5 mg/kg
  Hypoglycemic activity: 77%
Rattus norvegicus [20]; [46]
  ED50: 1 mg/kg
Rattus norvegicus [42]
  Inhibition: 22%
Rattus norvegicus [43]
  Inhibition: 36%
L6 [44]
  Basal uptake: 87%

## CC(C)c1ccc(OC(C)(Cc2ccc(Cl)cc2)C(=O)O)cc1 (stereo in doubt; 27)
3T3-L1 [27]
  Basal uptake: 214%
Mus musculus [17]; 1 mg/kg
  Hypoglycemic activity: 36%
Mus musculus [45]
  Hypoglycemic activity: 79%
Mus musculus [18]; 5 mg/kg
  Hypoglycemic activity: 65%
Rattus norvegicus [20]
  ED50: 1 mg/kg

## CC(C)c1ccc(OC(C)(Cc2ccc(Cl)cc2)C(=O)O)cc1 (stereo in doubt; 28)
3T3-L1 [27]
  Basal uptake: 229%
Mus musculus [17]; 1 mg/kg
  Hypoglycemic activity: 47%
Mus musculus [45]
  Hypoglycemic activity: 88%
Mus musculus [18]; 5 mg/kg
  Hypoglycemic activity: 100%
